Structures are written as SMILES. Converted amounts (≈) assume the structure as drawn. Where two headings read alike, the source gives them in different places.

One experiment has as its system E. faecalis (ATCC 29212). Put plainly: microbe, parasite or virus in culture. The following applies: Enterococcus faecalis, ATCC29212, MHB, 2–5 × 10^5 CFU/mL, 16–18 h, 37 °C, read-out: Minimum inhibitory concentration, MIC. In kind it is cell-based. How it is done: (§1) The antibacterial activity was evaluated as MIC using slight modifications to a serial broth micro dilution method as reported previously[66],[67]. Briefly, to each treatment well of the 96-well plate (Corning Incorporated, USA) 10 μL of peptidomimetic/antibiotic was added and subsequently diluted serial 2-fold in 0.2% BSA (in 0.01% acetic acid). Then to each well of the first 11 columns 100 μL of mid-log phase bacterial suspension in MHB medium was added to get 2–5 × 10^5 CFU/mL. Cultures without test peptidomimetics/antibiotics were used as growth control. Uninoculated MHB medium was used as negative control. The microtitre plates were incubated overnight with agitation (180 rpm) at 37 °C. After 16–18 h incubation, absorbance was read at 600 nm using an ELISA plate reader (Molecular Devices, Sunnyvale, CA, USA). The experiments were carried out in duplicate on at least three different days.

The subject of experiment [1] is Vancomycin-resistant E. faecium (ATCC 700221). Put plainly: microbe, parasite or virus in culture. In kind it is cell-based. The following applies: Enterococcus faecium, ATCC700221, MHB, 2–5 × 10^5 CFU/mL, 16–18 h, 37 °C, read-out: Minimum inhibitory concentration, MIC. The method, then: as §1
Experiment [2] has as its system E. faecium (E-7846), clinical isolate of vancomycin-resistant E. faecium. Put plainly: organism not typed. In kind it is cell-based, Enterococcus faecium. As to conditions: read-out: Minimum inhibitory concentration, MIC. In short, it runs like this:
(§2)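 First, each compound was diluted 2-fold serially in 0.2% BSA containing 0.01% acetic acid. Mid-log bacteria in Mueller-Hinton broth were then added at 2–5 × 10^5 CFU/mL, and plates were incubated overnight (16–18 h) at 37 °C with shaking before OD600 measurement.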

Experiment [3] relates to E. faecium (E-447), clinical isolate of vancomycin-resistant E. faecium. Put plainly: organism not typed. As to conditions: read-out: Minimum inhibitory concentration, MIC. In kind it is cell-based, Enterococcus faecium. In short, it runs like this:
as §2

Experiment [4] deals with 48 h mature MRSA ATCC 33591 biofilms. The experiment can be described thus: 48 h mature biofilm, confocal laser scanning microscopy (Live/Dead). In kind it is cell-based, Staphylococcus aureus. The following applies: 24 h treatment at 20 × MIC (S-7 226 μg/mL, S-8 28 μg/mL, VAN 28 μg/mL), untreated 22 μm. The method, then: For the experiment, a protocol as described previously was used with slight modifications[24],[72]. Briefly, stationary phase MRSA ATCC 33591 culture ~10^5 CFU/mL in TSB medium (supplemented with 0.25% glucose and 0.5% NaCl) was added to the well of an 8-well chamber slide (200 μL). The slide was incubated at 37 °C without shaking for 24 h. After 24 h, the medium was discarded and the biofilm was washed with PBS once (10 mM sodium phosphate, 150 mM NaCl, pH 7.3). […] After 48 h (24 h + 24 h), the planktonic cells were removed and the biofilms were washed with PBS once. To the wells, 200 μL of PBS containing BacLight Live/Dead viability stain [SYTO9 (green fluorescence) and propidium iodide (PI) (red fluorescence) in equal volume] was added and the chamber slides were incubated at room temperature for 15 min in dark. After 15 min, the stain was removed and biofilms were washed with PBS once. To fix the biofilms, 200 μL of neutral buffered formalin (10% in PBS) was added to each well and the slides were kept at room temperature in dark for 30 min. After fixation, the biofilms were washed once, the chamber was removed and a cover slip was placed over the slide. The biofilms were viewed with an Olympus FluoView^TM FV1000 confocal laser scanning microscope (2D and z-stacking). […] For each sample, the biofilms thickness was also determined using z-scanning confocal microscopy. […]

Another experiment deals with MRSA ATCC 33591. The experiment can be described thus: microbe, parasite or virus in culture. Type of experiment: cell-based, Staphylococcus aureus. The following applies: Staphylococcus aureus, MRSA ATCC 33591, read-out: Minimum inhibitory concentration, MIC. How it is done: An initial inoculum of mid-log phase 10^7 CFU/mL was used and MIC experiment was performed as described earlier. For serum/plasma stability assay a method as described previously was used with slight modifications. Briefly, 50 μL MHB medium containing desired concentration of test peptidomimetics was incubated with 50 µL mice plasma/fetal bovine serum for 3 h at 37 °C. After incubation, a 10 μL aliquot was taken out for MIC determination as described above. For the experiment, mid-log phase 2–5 × 10^5 CFU/mL were used as initial inoculum. For the growth control wells, an equivalent amount of plasma/FBS in the medium was also added to evaluate their effect on the viability of cells. A slight decrease in OD600 of cells incubated with mice plasma was observed compared to untreated growth control in MHB alone. The experiments were repeated on two different days and reproducible MIC values were observed.

Experiment [5] concerns exponential phase MRSA ATCC 33591. The experiment can be described thus: Bacterial killing kinetics, exponential phase cells in MHB medium. As to conditions: 24 h. Type of experiment: cell-based, Staphylococcus aureus. How it is done: The kinetics of bacterial killing was determined against MRSA ATCC 33591 strain using drop plate method as described previously with slight modifications[51],[67],[70],[71]. The experiment was performed against exponential phase MRSA in normal medium and stationary phase MRSA in nutrient-depleted medium. For the preparation of nutrient-depleted medium, the primary MRSA ATCC 33591 culture in MHB medium was allowed to grow for 18 h at 37 °C and the cells were removed by centrifugation. The cell pellet was used for stationary phase culture and the spent medium supernatant was used as a nutrient-depleted medium. For obtaining exponential phase cells, MRSA was grown overnight in MHB and 100 μL suspension was used to inoculate 10 mL fresh MHB medium. The cells were incubated at 37 °C for 4–6 h to reach exponential phase.
For the experiments, both exponential and stationary phase cells were re-suspended separately in normal or nutrient-depleted mediums to OD600 = 0.5 (~10^8 CFU/mL). A 25 µL aliquot of this suspension was added to 475 μL of respective medium with or without test peptidomimetics/antibiotics in an eppendorf tube. […] The agar plates were incubated at 37 °C for 16–18 h and the colonies were counted (dilutions having colonies in the range of 10–100 were counted). […]

As for `CN[C@H](CC(C)C)C(=O)N[C@H]1C(=O)N[C@@H](CC(N)=O)C(=O)N[C@H]2C(=O)N[C@H]3C(=O)N[C@H](C(=O)N[C@H](C(=O)O)c4cc(O)cc(O)c4-c4cc3ccc4O)[C@H](O)c3ccc(c(Cl)c3)Oc3cc2cc(c3O[C@@H]2O[C@H](CO)[C@@H](O)[C@H](O)[C@H]2O[C@H]2C[C@](C)(N)[C@H](O)[C@H](C)O2)Oc2ccc(cc2Cl)[C@H]1O` [VAN, vancomycin], the MIC was 1.4 µg/mL (≈ 0.966 µM) in the experiment with E. faecalis (ATCC 29212); greater than 45.4 µg/mL in experiment [1]; greater than 45.4 µg/mL in experiment [2]; greater than 45.4 µg/mL in experiment [3]; 1.4 µg/mL (≈ 0.966 µM) in the experiment with MRSA ATCC 33591 (after 3 h pre-incubation at 37 °C with fetal bovine serum (50%, v/v), inoculum 2–5 × 10^5 CFU/mL, repeated on two days); 1.4 µg/mL (≈ 0.966 µM) in the experiment on MRSA ATCC 33591 (after 3 h pre-incubation at 37 °C with mice plasma (50%, v/v), inoculum 2–5 × 10^5 CFU/mL, repeated on two days). The MIC in the experiment on MRSA ATCC 33591 (initial inoculum 10^7 CFU/mL, mid-log phase) is 2.8 µg/mL (≈ 1.93 µM). Further, the biofilm thickness in experiment [4] came out at 14 μm. The “log reduction in CFU/mL” value in experiment [5] (4 × MIC) and in experiment [5] (10 × MIC) was ~ 2.3 log each time.

Values taken from publication PMC5773577, “Novel Miniature Membrane Active Lipopeptidomimetics against Planktonic and Biofilm Embedded Methicillin-Resistant Staphylococcus aureus” (Scientific Reports, 2018).
